{"source": "paper PMC11722014", "about": "“FXR Activation Accelerates Early Phase of Osteoblast Differentiation Through COX-2-PGE2-EP4 Axis in BMP-2-Induced Mouse Mesenchymal Stem Cells” (Molecules, 2024)", "molecular_target": "T1, Farnesoid X receptor (FXR) (Homo sapiens, UniProt Q96RI1)", "T1 construct": "gene NR1H4; FXR-LBD-Glutathione S-transferase fusion protein", "T1 sequence (Q96RI1 262-486 limits assumed)": "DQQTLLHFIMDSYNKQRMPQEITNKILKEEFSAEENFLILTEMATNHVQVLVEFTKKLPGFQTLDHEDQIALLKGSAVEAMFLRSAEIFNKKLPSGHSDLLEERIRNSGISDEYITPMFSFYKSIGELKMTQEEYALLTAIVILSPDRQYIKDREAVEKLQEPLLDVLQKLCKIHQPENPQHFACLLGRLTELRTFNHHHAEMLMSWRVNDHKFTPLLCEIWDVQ", "experiment": "LanthaScreen TR-FRET FXR coactivator recruitment assay (partial agonist, […] of GW4064); also luciferase reporter assay", "type": "binding", "data": [{"smiles": "CC(C)(C)c1ccc(-n2c(C3CC3)nc3c(NC(=O)c4ccc(C(=O)O)cc4)cccc32)cc1", "note": "[FLG390]", "values": [{"measurement": "EC50", "result": "630 ± 260", "unit": "nM"}]}]}
